Test results as given in patent EP4782453A1 (Beyang Therapeutics Co., Ltd., priority 2023, dated 2025).
Read-outs that look alike come from different tables or passages of the source.

Tests used:
Menin-MLL = biological target: T1, Menin-MLL (Homo sapiens, UniProt O00255); assay: Inhibitory activity against Menin-MLL binding (fluorescence polarization); settings: 150 nM His-Menin, 15 nM FITC-MLL, 25°C for 60 min
T1 construct: His-Menin (M1-L615 end); purchased BIORTUS BP9210
T1 sequence (O00255 1-615 isoform O00255-1): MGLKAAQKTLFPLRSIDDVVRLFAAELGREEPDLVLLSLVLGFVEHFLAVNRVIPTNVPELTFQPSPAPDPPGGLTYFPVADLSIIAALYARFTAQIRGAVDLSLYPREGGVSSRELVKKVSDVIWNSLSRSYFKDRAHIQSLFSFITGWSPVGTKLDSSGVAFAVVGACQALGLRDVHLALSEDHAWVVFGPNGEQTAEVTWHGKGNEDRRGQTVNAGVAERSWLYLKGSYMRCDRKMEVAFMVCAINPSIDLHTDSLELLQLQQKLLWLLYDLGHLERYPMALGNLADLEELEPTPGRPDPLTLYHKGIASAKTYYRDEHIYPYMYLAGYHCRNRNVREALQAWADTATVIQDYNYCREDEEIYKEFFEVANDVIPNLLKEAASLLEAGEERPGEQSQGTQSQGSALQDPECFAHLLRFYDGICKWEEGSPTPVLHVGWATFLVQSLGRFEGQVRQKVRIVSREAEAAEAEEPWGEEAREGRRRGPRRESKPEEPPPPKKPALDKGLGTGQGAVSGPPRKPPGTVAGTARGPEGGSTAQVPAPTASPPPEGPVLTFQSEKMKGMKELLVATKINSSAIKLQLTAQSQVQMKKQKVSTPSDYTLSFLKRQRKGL
Method in brief: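 Fluorescence polarization competition: compound and 150 nM His-tagged menin (residues M1-L615) sit 15 min at 25 °C in pH 7.5 HEPES buffer with NaCl, DTT and BSA; 15 nM FITC-labelled MLL peptide then binds for 60 min. IC50 fitted sigmoidally from mP values, duplicate wells.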

[1] = system: MV-4-11 (carrying MLL-AF4); assay: Inhibition of proliferation of human tumor cells (Alamar Blue, 7 days), MV-4-11; assay type: cell-based; settings: MV-4-11 cells (carrying MLL-AF4), method calls the value GI50
Source text: Experimental Example 2: Evaluation of Inhibitory Activity of Compounds Against Proliferation of Human Tumor Cells
• Human acute lymphoblastic leukemia cells MV-4-11, purchased from American Type Culture Collection, Catalog Number: CRL-9591; • Human acute myeloid leukemia cells MOLM-13, purchased from COBIOER BIOSCIENCES CO., LTD, Catalog Number: CBP60678; • Human acute myeloid leukemia cells KG-1a, purchased from American Type Culture Collection, Catalog Number: CCL-246.1; • Inverted Microscope, purchased from Olympus Tokyo; • Countess™ Automated Cell Counter, purchased from Invitrogen, Model: C10281; and • Multilabel Reader, purchased from Bio-Tek, Model: Synergy HT.
MV-4-11 cells were cultured in an IMDM medium containing 10% fetal bovine serum, KG-a cells were cultured in an IMDM medium containing 20% fetal bovine serum, or MOLM-13 cells were cultured in an RPMI-1640 medium containing 20% fetal bovine serum, each supplemented with 100 U·mL^-1 penicillin and 100 µg·mL^-1 streptomycin. These cells were cultured at 37°C with 5% CO2. The suspensions of individual cell lines were prepared in their respective media and seeded into 96-well plates at a density of 4,000 cells/well for MV-4-11 and MOLM-13 cells, or 3,000 cells/well for KG-1a cells. On the day of the experiment, a compound stock solution was diluted in a 3-fold or 4-fold gradient using DMSO. Each gradient-diluted stock solution was then further diluted 250-fold with a complete medium to prepare a series of working solutions at different concentrations. Subsequently, 100 µL of working solution (containing a 2-fold concentration series of the test compound) was added to each well, with duplicate wells set up for each concentration.
Seven days after compound addition (on Day 7), an Alamar Blue assay reagent (MCE, HY-111391 / CS-0040317) was added to measure the fluorescence intensity in each well. Wells containing the cells in the growth medium supplemented with 0.1% DMSO (Day 7) served as high-read control wells. The readouts from the wells containing the cells in the growth medium supplemented with 0.1% DMSO on the day of compound addition (Day 0) served as low-reading control well. GraphPad Prism software was used to calculate the concentration required to inhibit 50% of cell proliferation (GI50), which serves as a cell proliferation inhibition activity index.

[2] = system: MOLM-13 (carrying MLL-AF9); assay: Inhibition of proliferation of human tumor cells (Alamar Blue, 7 days), MOLM-13; assay type: cell-based; settings: MOLM-13 cells (carrying MLL-AF9), method calls the value GI50
Method in brief: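 GI50 from Alamar Blue fluorescence after 7-day compound exposure, duplicate wells, using Day-0 and Day-7 0.1% DMSO wells as low and high controls. MV-4-11 in IMDM/10% FBS and MOLM-13 in RPMI-1640/20% FBS at 4,000 cells/well; KG-1a in IMDM/20% FBS at 3,000 cells/well.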

[3] = fluorescence polarization, read-out: Menin-MLL IC50
[4] = Menin-MLL IC50, fluorescence polarization

IC50 (Menin-MLL; [3]) [nM] | IC50 ([1]; Homo sapiens, MV4-11, 168 h) [nM] | IC50 ([2]; Homo sapiens, 168 h) [nM] | IC50 [1] [nM] | IC50 [2] [nM] | Compound | IC50 (Menin-MLL; [4]) [nM] | IC50 ([2]; Homo sapiens, MOLM-13, 168 h) [nM]
11 | 8.3 | 24 |  |  | Cc1nc(F)c2c(-c3ccc(F)cc3C(=O)N3CCOC[C@H]3C)cc(C3CN([C@@H](C)C4CCN(C(=O)C5(O)CC5)CC4)C3)cn12 [Example 278] |  | 
3 | 1.6 | 7 |  |  | CO[C@@H]1CN(CCC[C@H](C(C)C)N2CC(c3cc(-c4ccc(F)cc4C(=O)N4CCOC[C@H]4C)c4c(F)nc(C)n4c3)C2)C[C@H]1O (relative stereo) [Example 291, (3r,4r)-1-[(4R)-4-[3-(1-fluoro-8-{4-fluoro-2-[(3R)-3-methylmorpholin-4-carbonyl]phenyl}-3-methylimidazo[1,5-a]pyridin-6-yl)azacyclobutan-1-yl]-5-methylhexyl]-4-methoxypyrrolidin-3-ol] |  | 
9.5 | 9.2 | 22 |  |  | Cc1nc(F)c2c(-c3ccc(F)cc3C(=O)N3[C@H](C)COC[C@H]3C)cc(C3CN(CC4CCN(C(=O)c5cn[nH]c5)CC4)C3)cn12 [Example 247] |  | 
17 | 26 | 45 |  |  | CNC(=O)N1CCC(CN2CC(c3cc(-c4ccc(F)cc4C(=O)N4CCOC[C@H]4C)c4c(F)nc(C)n4c3)C2)CC1 [Example 250] |  | 
26 | 14 | 36 |  |  | COCC(=O)N1CCC(CN2CC(c3cc(-c4ccc(F)cc4C(=O)N4[C@H](C)COC[C@H]4C)c4c(F)nc(C)n4c3)C2)CC1 [Example 224] |  | 
27 | 12 | 27 |  |  | Cc1nc(F)c2c(-c3ccc(F)cc3C(=O)N3[C@H](C)COC[C@H]3C)cc(C3CN(CC4CCN(C(=O)C5CCOCC5)CC4)C3)cn12 [Example 221] |  | 
13 | 6 | 11 |  |  | Cc1nc(F)c2c(-c3ccc(F)cc3C(=O)N3[C@H](C)COC[C@H]3C)cc(C3CN(CC4CCN(C(=O)CC(C)C)CC4)C3)cn12 [Example 218] |  | 
24.5 | 21 | 36 |  |  | CCS(=O)(=O)N[C@@H]1CC[C@@H](CN2CC(c3cc(-c4ccc(F)cc4C(=O)N(CC(F)F)C(C)C)c4cnc(C)n4c3)C2)OC1 [Example 150, N-(2,2-difluoroethyl)-2-[6-(1-{[(2S,5R)-5-ethanesulfonamidooxacyclohexan-2-yl]methyl}azacyclobutan-3-yl)-3-methylimidazo[1,5-a]pyridin-8-yl]-5-fluoro-N-(isopropyl)benzamide] |  | 
12.5 | 16 | 31 |  |  | Cc1ncc2c(-c3ccc(F)cc3C(=O)N3[C@H](C)COC[C@H]3C)cc(C3CN(CC4CCOCC4)C3)cn12 [Example 212, (3R,5R)-4-[5-fluoro-2-(3-methyl-6-{1-[(oxacyclohexan-4-yl)methyl]azacyclobutan-3-yl}imidazo[1,5-a]pyridin-8-yl)benzoyl]-3,5-dimethylmorpholine] |  | 
28 | 25 | 60 |  |  | CC(=O)N1CCC(CN2CC(c3cc(-c4ccc(F)cc4C(=O)N4CCOC[C@H]4C)c4c(F)nc(C)n4c3)C2)CC1 [Example 225] |  | 
59 | 55 | 110 |  |  | COC(=O)N1CCC(CN2CC(c3cc(-c4ccc(F)cc4C(=O)N4CCOC[C@H]4C)c4c(F)nc(C)n4c3)C2)CC1 [Example 259] |  | 
14 |  |  | 18.5 | 44 | CCN(C(=O)c1cc(F)ccc1-c1cc([C@H]2CCN(C[C@]3(O)CC[C@H](NS(=O)(=O)CC)CC3)C2)cc2c1cnn2C)C(C)C [Compound 55-1-1, N-ethyl-5-fluoro-2-[1-methyl-6-[(3R)-1-{[(1r,4s)-4-ethanesulfonamido-1-hydroxylcyclohexyl]methyl}pyrrolidin-3-yl]-1H-indazol-4-yl]-N-(isopropyl)benzamide] |  | 
22.5 | 6.1 | 16 |  |  | CCC(=O)N1CCC(CN2CC(c3cc(-c4ccc(F)cc4C(=O)N4[C@H](C)COC[C@H]4C)c4c(F)nc(C)n4c3)C2)CC1 [Example 231] |  | 
3 | 7.1 | 41 |  |  | CC(=O)N1CCC(CN2CC(Cc3cc(-c4ccc(F)cc4C(=O)N(CC(F)F)C(C)C)c4cncc(C)n34)C2)CC1 [Example 210] |  | 
3 | 2.2 | 5.7 |  |  | Cc1nc(F)c2c(-c3ccc(F)cc3C(=O)N3[C@H](C)COC[C@H]3C)cc(C3CN(CC4CCN(CC5(O)CCOCC5)CC4)C3)cn12 [Example 211, 4-[(4-{[3-(8-{2-[(3R,5R)-3,5-dimethylmorpholin-4-carbonyl]-4-fluorophenyl}-1-fluoro-3-methylimidazo[1,5-a]pyridin-6-yl)azacyclobutan-1-yl]methyl}piperidin-1-yl)methyl]oxacyclohexan-4-ol] |  | 
46 | 89 |  |  |  | CNCCCC(C(C)C)N1CC(c2cc(-c3ccc(F)cc3C(=O)N(CC(F)F)C(C)C)c3cnccn23)C1 (centres unmarked) [Example 146, N-(2,2-difluoroethyl)-5-fluoro-2-(6-{1-[2-methyl-6-(methylamino)hexan-3-yl]azacyclobutan-3-yl}pyrrolo[1,2-a]pyrazin-8-yl)-N-(isopropyl)benzamide] |  | 

Compound | IC50 (Menin-MLL; [3]) [nM] | IC50 ([1]; Homo sapiens, MV4-11, 168 h) [nM] | IC50 ([2]; Homo sapiens, 168 h) [nM] | IC50 [1] [nM] | IC50 [2] [nM] | IC50 (Menin-MLL; [4]) [nM] | IC50 ([2]; Homo sapiens, MOLM-13, 168 h) [nM]
CO[C@H]1CCN([C@H]2C[C@@H](C(C(C)C)N3CC(c4cc(-c5ccc(F)cc5C(=O)N5CCOC[C@H]5C)c5cnn(C)c5c4)C3)C2)C1 (stereo partly drawn) [Example 196-2, 4-{4-fluoro-2-[(3R)-3-methylmorpholin-4-carbonyl]phenyl}-1-methyl-6-(1-{2-methyl-1-[(1s,3s)-3-[(3S)-3-methoxypyrrolidin-1-yl]cyclobutyl]propyl}azacyclobutan-3-yl)-1H-indazole] |  | 9.6 |  |  |  | 17 | 28
CCS(=O)(=O)N[C@H]1CC[C@H](CN2CC(c3cc(-c4ccc(F)cc4C(=O)N(CC(F)F)C(C)C)c4c(F)nc(C)n4c3)C2)CC1 [Example 132, N-(2,2-difluoroethyl)-5-fluoro-2-[1-fluoro-3-methyl-6-(1-{[(1r,4r)-4-ethanesulfonamidocyclohexyl]methyl}-azacyclobutan-3-yl)imidazo[1,5-a]pyridin-8-yl]-N-(isopropyl)benzamide] |  | 17 |  |  |  | 6 | 16
CCS(=O)(=O)N[C@H]1CC[C@H](CN2CCC(c3cc(-c4ccc(F)cc4C(=O)N(CC(F)F)C(C)C)c4cnccn34)CC2)CC1 [Example 139, N-(2,2-difluoroethyl)-5-fluoro-N-(isopropyl)-2-[6-(1-{[(1r,4r)-4-ethanesulfonamidocyclohexyl]methyl}piperidin-4-yl)pyrrolo[1,2-a]pyrazin-8-yl]benzamide] |  | 44 |  |  |  | 42 | 96
